Assays:
[1] = Half life in mouse liver microsomes at 1 uM preincubated for 10 mins followed by NADPH addition measured up to 60 mins by LC-MS/MS analysis; assay type: ADME, microsome
[2] = target: Histone deacetylase 5 (Homo sapiens, UniProt Q9UQL6); assay: Inhibition of human HDAC5
[3] = target: T1, Histone deacetylase 1 (Homo sapiens, UniProt Q13547); assay: Inhibition of full length human recombinant C-terminal FLAG/His-tagged HDAC1 expressed in baculovirus infected sf9 cells using fluorogenic HDAC substrate 3 after 4 hrs fluorescence assay
[4] = Cytotoxicity against Tg2576 mouse primary neurons after 72 hrs by ATP luminescence assay; assay type: cell-based, Neuron; details: read-out: LC50
[5] = target: Histone deacetylase 3/Nuclear receptor corepressor 2 (HDAC3/NCoR2) (Homo sapiens, UniProt O15379); assay: Inhibition of full length human recombinant C-terminal His-tagged HDAC3/N-terminal GST-tagged NCOR2 (95 to 489 residues) expressed in baculovirus infected sf9 cells using fluorogenic HDAC substrate 3 after 30 mins by fluorescence assay
[6] = Selectivity ratio of compound effect for inhibition of HDAC6 in human SH-SY5Y cells assessed as induction of tubulin K-40 acetylation level to compound effect for inhibition of class-1 HDAC in human SH-SY5Y cells assessed as induction of AcH3K9 level; assay type: functional
[7] = target: T1, Histone deacetylase 1; assay: Inhibition of full length human recombinant C-terminal FLAG/His-tagged HDAC1 expressed in baculovirus infected sf9 cells using fluorogenic HDAC substrate 3 after 30 mins by fluorescence assay
[8] = Inhibition of class-1 HDAC in human SH-SY5Y cells assessed as induction of AcH3K9 level at 160 nM after 2 hrs by AlphaLISA assay; assay type: cell-based; details: 0.16 µM
[9] = cells; details: Homo sapiens, SH-SY5Y, 2 h, read-out: FC
[10] = target: cGMP-specific 3',5'-cyclic phosphodiesterase (Homo sapiens, UniProt O76074); assay: Inhibition of full length human recombinant N-terminal GST-tagged PDE5A1 expressed in baculovirus infected sf9 cells using cGMP as substrate after 30 mins by fluorescence assay
[11] = target: CYP1A2 (Homo sapiens, UniProt P05177); assay: Inhibition of CYP1A2 in human liver microsomes at 10 uM after 10 mins in presence of NADPH by LC-MS/MS analysis relative to control; assay type: ADME
[12] = target: Protein deacetylase HDAC6 (Mus musculus) (UniProt Q9Z2V5); assay: Inhibition of HDAC6 in Tg2576 mouse primary neurons assessed as reduction in phosphorylated tau protein level at 100 nM treated for 2 days measured at 24 hrs post last dose by Western blot analysis relative to control
[13] = target: CYP2C19 (Homo sapiens, UniProt P33261); assay: Inhibition of CYP2C19 in human liver microsomes at 10 uM after 10 mins in presence of NADPH by LC-MS/MS analysis relative to control; assay type: ADME
[14] = Effective permeability of the compound at 50 uM after 18 hrs by UV spectroscopy based PAMPA; assay type: ADME; details: read-out: Peff
[15] = target: cGMP-inhibited 3',5'-cyclic phosphodiesterase 3A (Homo sapiens, UniProt Q14432); assay: Inhibition of PDE3A (unknown origin) using FAM-cGMP as substrate by fluorescence assay
[16] = target: High affinity cGMP-specific 3',5'-cyclic phosphodiesterase 9A (Homo sapiens, UniProt O76083); assay: Inhibition of full length human recombinant N-terminal GST-tagged PDE9A2 expressed in baculovirus infected sf9 cells using cGMP as substrate after 30 mins by fluorescence assay
[17] = target: Histone deacetylase 2 (Homo sapiens, UniProt Q92769); assay: Inhibition of full length human recombinant C-terminal His-tagged HDAC2 expressed in baculovirus infected sf9 cells using fluorogenic HDAC substrate 3 after 30 mins by fluorescence assay
[18] = target: Protein deacetylase HDAC6 (Mus musculus) (UniProt Q9Z2V5); assay: Inhibition of HDAC6 in Tg2576 mouse primary neurons assessed as reduction in human APP protein level at 100 nM treated for 2 days measured at 24 hrs post last dose by Western blot analysis relative to control
[19] = target: T1, Histone deacetylase 1; assay: Inhibition of full length human recombinant C-terminal FLAG/His-tagged HDAC1 expressed in baculovirus infected sf9 cells assessed residence time preincubated fopr 2 hrs followed by dilution and subsequent fluorogenic HDAC substrate 3 addition measured at 2 mins time interval by fluorescence based jump dilution assay
[20] = target: Histone deacetylase 9 (Homo sapiens, UniProt Q9UKV0); assay: Inhibition of human HDAC9
[21] = target: Histone deacetylase 8 (Homo sapiens, UniProt Q9BY41); assay: Inhibition of human HDAC8
[22] = target: CYP2D6 (Homo sapiens, UniProt P10635); assay: Inhibition of CYP2D6 in human liver microsomes at 10 uM after 10 mins in presence of NADPH by LC-MS/MS analysis relative to control; assay type: ADME
[23] = system: Mus musculus; assay: Cognitive enhancing effect in Tg2576 mouse model of Alzheimer's disease assessed as long term associative memory improvement by measuring freezing after electric shock at 40 mg/kg, ip for 2 weeks measured at 24 hrs post electric shock (reference value: 54%); assay type: functional

T1 sequence (Q13547 whole entry): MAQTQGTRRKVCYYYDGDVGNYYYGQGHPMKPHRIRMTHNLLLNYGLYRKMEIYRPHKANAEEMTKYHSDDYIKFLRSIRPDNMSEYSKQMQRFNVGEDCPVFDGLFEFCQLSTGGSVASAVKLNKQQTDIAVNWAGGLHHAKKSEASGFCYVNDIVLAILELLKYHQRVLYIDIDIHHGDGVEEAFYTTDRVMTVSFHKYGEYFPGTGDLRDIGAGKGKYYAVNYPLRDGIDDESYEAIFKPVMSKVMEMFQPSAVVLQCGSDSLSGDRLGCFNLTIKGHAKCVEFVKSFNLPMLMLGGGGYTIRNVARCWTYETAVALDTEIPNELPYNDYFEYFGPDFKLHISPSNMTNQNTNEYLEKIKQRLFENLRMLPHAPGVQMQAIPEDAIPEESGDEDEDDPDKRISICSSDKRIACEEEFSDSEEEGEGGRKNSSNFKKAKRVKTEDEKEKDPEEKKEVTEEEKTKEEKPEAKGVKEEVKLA
Protein deacetylase HDAC6 (Mus musculus), sequence (Q9Z2V5 whole entry): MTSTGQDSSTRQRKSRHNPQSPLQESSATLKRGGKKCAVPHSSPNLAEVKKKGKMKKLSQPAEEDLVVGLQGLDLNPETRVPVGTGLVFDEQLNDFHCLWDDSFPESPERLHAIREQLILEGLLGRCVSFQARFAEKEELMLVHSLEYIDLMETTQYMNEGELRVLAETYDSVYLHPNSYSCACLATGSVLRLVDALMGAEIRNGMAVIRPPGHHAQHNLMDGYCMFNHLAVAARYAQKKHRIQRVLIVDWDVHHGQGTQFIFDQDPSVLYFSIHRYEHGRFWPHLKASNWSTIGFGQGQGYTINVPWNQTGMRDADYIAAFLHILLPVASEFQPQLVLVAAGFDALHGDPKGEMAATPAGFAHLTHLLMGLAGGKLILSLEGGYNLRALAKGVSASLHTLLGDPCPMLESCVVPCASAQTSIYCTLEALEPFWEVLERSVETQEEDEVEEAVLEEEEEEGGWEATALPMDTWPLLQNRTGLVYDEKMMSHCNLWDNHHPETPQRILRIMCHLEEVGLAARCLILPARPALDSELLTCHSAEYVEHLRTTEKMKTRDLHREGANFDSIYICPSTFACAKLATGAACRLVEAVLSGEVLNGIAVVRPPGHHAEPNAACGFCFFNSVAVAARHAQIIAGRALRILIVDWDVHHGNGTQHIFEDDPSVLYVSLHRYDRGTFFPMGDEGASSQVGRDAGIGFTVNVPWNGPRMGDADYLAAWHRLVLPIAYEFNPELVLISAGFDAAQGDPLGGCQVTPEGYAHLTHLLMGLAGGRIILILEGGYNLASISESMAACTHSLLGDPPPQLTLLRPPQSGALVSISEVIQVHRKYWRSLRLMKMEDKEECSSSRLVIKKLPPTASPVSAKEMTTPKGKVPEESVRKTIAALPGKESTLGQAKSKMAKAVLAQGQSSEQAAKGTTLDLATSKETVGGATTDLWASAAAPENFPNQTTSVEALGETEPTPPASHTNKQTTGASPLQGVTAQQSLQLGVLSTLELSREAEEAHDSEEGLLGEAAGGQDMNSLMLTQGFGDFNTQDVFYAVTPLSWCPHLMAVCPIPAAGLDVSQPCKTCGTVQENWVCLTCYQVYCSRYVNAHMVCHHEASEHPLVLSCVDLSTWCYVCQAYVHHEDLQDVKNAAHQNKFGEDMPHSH
CYP1A2, sequence (P05177 whole entry): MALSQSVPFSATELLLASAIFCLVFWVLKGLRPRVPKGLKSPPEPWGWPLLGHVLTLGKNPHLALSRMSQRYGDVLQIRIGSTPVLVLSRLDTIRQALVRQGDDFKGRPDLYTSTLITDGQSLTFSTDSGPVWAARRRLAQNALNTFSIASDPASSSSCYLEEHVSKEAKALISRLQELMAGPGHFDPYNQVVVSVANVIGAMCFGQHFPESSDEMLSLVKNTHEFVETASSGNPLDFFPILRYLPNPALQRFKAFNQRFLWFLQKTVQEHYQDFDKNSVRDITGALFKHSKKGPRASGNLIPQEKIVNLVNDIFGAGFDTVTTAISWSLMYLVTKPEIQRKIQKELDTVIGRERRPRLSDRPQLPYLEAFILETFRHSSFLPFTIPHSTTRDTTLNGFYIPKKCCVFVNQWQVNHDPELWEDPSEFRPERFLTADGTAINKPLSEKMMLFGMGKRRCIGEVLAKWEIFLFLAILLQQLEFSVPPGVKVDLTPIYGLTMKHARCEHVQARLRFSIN
cGMP-inhibited 3',5'-cyclic phosphodiesterase 3A, sequence (Q14432 whole entry): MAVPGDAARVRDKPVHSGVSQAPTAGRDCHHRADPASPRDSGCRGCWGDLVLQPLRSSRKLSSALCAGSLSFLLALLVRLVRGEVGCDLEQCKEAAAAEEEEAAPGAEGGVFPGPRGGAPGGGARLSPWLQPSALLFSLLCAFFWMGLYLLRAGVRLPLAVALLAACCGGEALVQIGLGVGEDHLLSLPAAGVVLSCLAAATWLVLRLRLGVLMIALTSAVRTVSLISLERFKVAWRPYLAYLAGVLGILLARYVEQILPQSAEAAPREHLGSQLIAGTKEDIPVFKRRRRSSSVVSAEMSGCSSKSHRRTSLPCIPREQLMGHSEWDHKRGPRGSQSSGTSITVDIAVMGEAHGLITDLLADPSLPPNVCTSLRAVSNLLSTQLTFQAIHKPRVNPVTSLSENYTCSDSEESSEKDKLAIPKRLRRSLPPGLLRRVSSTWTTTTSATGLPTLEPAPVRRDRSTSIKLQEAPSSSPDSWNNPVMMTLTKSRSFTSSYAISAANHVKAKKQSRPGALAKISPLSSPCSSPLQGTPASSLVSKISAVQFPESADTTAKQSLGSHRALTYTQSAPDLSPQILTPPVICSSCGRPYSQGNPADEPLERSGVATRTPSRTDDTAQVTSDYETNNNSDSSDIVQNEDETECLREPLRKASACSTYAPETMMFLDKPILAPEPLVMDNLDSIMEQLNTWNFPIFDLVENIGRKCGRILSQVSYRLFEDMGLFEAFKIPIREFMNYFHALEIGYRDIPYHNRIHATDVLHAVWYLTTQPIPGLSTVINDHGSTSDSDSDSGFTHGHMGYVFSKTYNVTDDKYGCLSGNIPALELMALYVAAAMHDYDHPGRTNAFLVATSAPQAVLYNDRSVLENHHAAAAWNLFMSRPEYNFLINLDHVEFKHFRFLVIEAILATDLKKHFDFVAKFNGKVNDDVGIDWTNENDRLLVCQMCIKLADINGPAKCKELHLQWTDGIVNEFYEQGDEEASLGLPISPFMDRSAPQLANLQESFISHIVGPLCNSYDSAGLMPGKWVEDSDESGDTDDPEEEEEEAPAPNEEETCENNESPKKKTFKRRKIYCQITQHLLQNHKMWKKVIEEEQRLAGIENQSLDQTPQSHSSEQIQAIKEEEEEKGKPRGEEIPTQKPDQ
Histone deacetylase 9, sequence (Q9UKV0 whole entry): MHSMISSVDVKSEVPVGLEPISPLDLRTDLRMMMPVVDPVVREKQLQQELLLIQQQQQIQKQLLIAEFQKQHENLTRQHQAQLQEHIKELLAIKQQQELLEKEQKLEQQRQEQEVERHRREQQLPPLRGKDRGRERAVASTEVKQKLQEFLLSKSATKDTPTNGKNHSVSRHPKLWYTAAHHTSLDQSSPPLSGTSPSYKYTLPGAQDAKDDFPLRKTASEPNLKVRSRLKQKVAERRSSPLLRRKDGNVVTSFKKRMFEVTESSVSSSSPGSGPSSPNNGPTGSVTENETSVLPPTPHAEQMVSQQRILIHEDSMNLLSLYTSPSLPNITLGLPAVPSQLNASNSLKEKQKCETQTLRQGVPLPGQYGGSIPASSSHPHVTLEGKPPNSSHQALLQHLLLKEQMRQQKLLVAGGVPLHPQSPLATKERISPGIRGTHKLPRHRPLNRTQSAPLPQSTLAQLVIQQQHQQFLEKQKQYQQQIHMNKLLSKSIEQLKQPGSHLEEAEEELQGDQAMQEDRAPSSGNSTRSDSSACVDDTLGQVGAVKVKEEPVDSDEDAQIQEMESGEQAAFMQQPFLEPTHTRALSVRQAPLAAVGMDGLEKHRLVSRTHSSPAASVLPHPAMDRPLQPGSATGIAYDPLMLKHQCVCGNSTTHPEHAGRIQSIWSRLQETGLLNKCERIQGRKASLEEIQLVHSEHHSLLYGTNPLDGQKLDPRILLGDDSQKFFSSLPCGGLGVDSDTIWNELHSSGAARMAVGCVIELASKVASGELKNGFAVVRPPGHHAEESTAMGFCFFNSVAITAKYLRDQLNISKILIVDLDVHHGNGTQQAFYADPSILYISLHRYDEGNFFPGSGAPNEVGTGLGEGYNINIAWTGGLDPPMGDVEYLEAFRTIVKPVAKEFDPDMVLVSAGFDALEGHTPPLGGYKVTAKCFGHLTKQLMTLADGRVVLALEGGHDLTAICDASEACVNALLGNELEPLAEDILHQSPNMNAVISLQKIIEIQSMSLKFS
High affinity cGMP-specific 3',5'-cyclic phosphodiesterase 9A, sequence (O76083 whole entry): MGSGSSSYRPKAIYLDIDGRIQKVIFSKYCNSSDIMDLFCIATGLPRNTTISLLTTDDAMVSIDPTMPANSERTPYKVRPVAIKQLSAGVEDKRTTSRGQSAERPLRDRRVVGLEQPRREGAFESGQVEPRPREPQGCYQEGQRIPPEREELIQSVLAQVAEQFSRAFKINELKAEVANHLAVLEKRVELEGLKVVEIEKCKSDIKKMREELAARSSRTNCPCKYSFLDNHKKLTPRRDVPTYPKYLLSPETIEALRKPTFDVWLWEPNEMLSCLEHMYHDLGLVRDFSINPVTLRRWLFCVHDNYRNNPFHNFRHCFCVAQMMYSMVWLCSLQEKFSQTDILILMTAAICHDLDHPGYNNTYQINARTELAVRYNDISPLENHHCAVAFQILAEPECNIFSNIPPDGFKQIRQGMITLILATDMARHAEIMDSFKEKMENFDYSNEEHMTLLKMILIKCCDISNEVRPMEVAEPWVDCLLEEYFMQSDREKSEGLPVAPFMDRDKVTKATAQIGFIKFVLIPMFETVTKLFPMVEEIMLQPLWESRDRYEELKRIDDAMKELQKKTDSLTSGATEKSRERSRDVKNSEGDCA

For `CCCc1nn(C)c2c(=O)[nH]c(-c3cc(Cc4ccc(C(=O)NO)s4)ccc3OCC)nc12`, the half-life at 1 µM [1] was 5.2 min, the IC50 [2] was over 10 µM and the IC50 [3] was 0.841 µM. The CC50 at 72 h [4] was 46.3 µM, the IC50 [5] was 2.09 µM and the Selectivity ratio [6] was over 5. The IC50 [7] was 0.345 µM, the “inhibition (INH)” value [8] was “Active” and the fold induction at 1 µM [9] was 12.1. The IC50 [10] was 0.011 µM, the inhibition at 10 min, 10 µM [11] was under 50% and the inhibition [12] was 30%. It also gave an inhibition at 10 min, 10 µM [13] of under 50%, a Papp at 18 h, 50 µM [14] of 2.91 ×10⁻⁶ cm/s and an IC50 [15] of 3.2 µM. It also gave an IC50 [16] of over 10 µM, an IC50 [17] of 3.72 µM and an inhibition [18] of 55%. It also gave a residence time [19] of 15.5 min, an IC50 [20] of over 10 µM and an IC50 [21] of over 10 µM. It also gave an inhibition at 10 min, 10 µM [22] of under 50% and an Activity [23] of 68%.

Source: ChEMBL document CHEMBL4196089, “Design, synthesis, biological evaluation and in vivo testing of dual phosphodiesterase 5 (PDE5) and histone deacetylase 6 (HDAC6)-selective inhibitors for the treatment of Alzheimer's disease” (Eur J Med Chem, 2018)
